Experiment: Study for confirmation of conversion to brexpiprazole in a buffer (stability of the evaluation compounds)
Assay type: physicochemical
Details: for Concentration of brexpiprazole formed / Concentration of evaluation compound decreased: in buffer, average of duplicate; for Concentration of brexpiprazole formed: 60-minute reaction sample; for Concentration of evaluation compound decreased: decrease in 60-minute vs 0-minute reaction sample
Method: The conversion from the evaluation compounds to brexpiprazole in a buffer (i.e., the stability of the evaluation compounds) was evaluated.
The Example 1 compound was dissolved in acetonitrile/water (1:1, v/v) to 10 mmol/L and further diluted with acetonitrile/water (1:1, v/v) to 100 μmol/L for use.
The other Example compounds and the Reference Example 5 compound to Reference Example 7 compound were each dissolved in DMSO to 10 mmol/L and further diluted with acetonitrile to 100 μmol/L for use, except for the following compounds.
The compounds of Examples 52, 95, 96, 117, and 130 (EX 52, EX 95, EX 96, EX 117, and EX 130) were dissolved in acetonitrile/water (8:2, v/v) to 10 mmol/L and further diluted with acetonitrile to 100 μmol/L for use.
The compound of Example 97 (EX 97) was dissolved in acetonitrile/water (8:2, v/v) to 10 mmol/L and further diluted with acetonitrile/water (8:2, v/v) to 100 μmol/L for use.
The compounds of Examples 15 and 116 (EX 15 and EX 116) were dissolved in DMSO to 1 mmol/L and further diluted with acetonitrile to 100 μmol/L for use.
The reaction was conducted by preparing each reaction solution such that the final concentration of each component was as follows. The test was conducted in duplicate.
For the compounds of Examples 1 to 8, 10 to 19, 26 to 27, 37, 50, 87 to 89, 91, 116, 121, 123, 150, and 151 (EX 1 to EX 8, EX 10 to EX 19, EX 26 to EX 27, EX 37, EX 50, EX 87 to EX 89, EX 91, EX 116, EX 121, EX 123, EX 150, and EX 151), and the compounds of Reference Examples 5 to 7 (REX 5 to REX 7), the reaction solution without the evaluation compound (198 μl) was pre-incubated at 37° C. for 3 minutes, and then each of the evaluation compound solutions (2 μl) was added and stirred; thereafter, the reaction was started at 37° C. At 0 minutes or 60 minutes after the start of the reaction, the reaction was stopped by adding and stirring a reaction stop solution (1000 μl) composed of acetonitrile/isopropanol (4:1, v/v) containing internal standard substances. However, the 0-minute reaction sample (198 μl) was prepared by adding the evaluation compound (2 μl) after adding the reaction stop solution (1000 μl). The samples after stopping the reaction were used as the measurement samples. Calibration curve samples with the same composition were prepared (final concentrations of the evaluation compounds and brexpiprazole: 0.01, 0.1, and 1 μmol/L, with the proviso that for the evaluation compounds only, the 0-minute reaction samples were also used as calibration curve samples for 1 μmol/L).
For the compounds of Examples 24 to 25, 28 to 29, 32 to 36, 40 to 49, 51 to 60, 62 to 64, 66 to 77, 80 to 86, 90, 92 to 111, 113, 115, 117 to 120, 122, 124 to 130, 132 to 147, and 152 to 160 (EX 24 to EX 25, EX 28 to EX 29, EX 32 to EX 36, EX 40 to EX 49, EX 51 to EX 60, EX 62 to EX 64, EX 66 to EX 77, EX 80 to EX 86, EX 90, EX 92 to EX 111, EX 113, EX 115, EX 117 to EX 120, EX 122, EX 124 to EX 130, EX 132 to EX 147, and EX 152 to EX 160), the reaction solution without the evaluation compound (148.5 μl) was pre-incubated at 37° C. for 3 minutes, and then each of the evaluation compound solutions (1.5 μl) was added and stirred; thereafter, the reaction was started at 37° C. At 0 minutes or 60 minutes after the start of the reaction, the reaction was stopped by adding and stirring a reaction stop solution (600 μl) composed of acetonitrile/isopropanol (4:1, v/v) containing internal standard substances. However, the 0-minute reaction sample (148.5 μl) was prepared by adding the evaluation compound (1.5 μl) after adding the reaction stop solution (600 μl). The samples after stopping the reaction were used as the measurement samples. Calibration curve samples with the same composition were prepared (final concentrations of the evaluation compounds and brexpiprazole: 0.01, 0.1, and 1 μmol/L, with the proviso that for the evaluation compounds only, the 0-minute reaction samples were also used as calibration curve samples for 1 μmol/L). […]

SMILES | Concentration of brexpiprazole formed [nM] | Concentration of evaluation compound decreased [nM] | stability in the buffer / conversion to brexpiprazole (in words) (Tris-hydrochloric acid buffer pH 7.5, 37° C., 60 minutes, 1 μmol/L)
CCOCCOC(=O)[C@@H](C)OP(=O)([O-])OC[N+]1(CCCCOc2ccc3ccc(=O)[nH]c3c2)CCN(c2cccc3sccc23)CC1 [EX 109, (R)-(4-(benzo[b]thiophen-4-yl)-1-(4-((2-oxo-1.2-dihydroquinolin-7-yl)oxy)butyl)piperazin-1-ium-1-yl)methyl (1-(2-ethoxyethoxy)-1-oxopropan-2-yl) phosphate] | 0 | -20 | –
CCCCCCOC(=O)OC[N+]1(CCCCOc2ccc3ccc(=O)[nH]c3c2)CCN(c2cccc3sccc23)CC1.[I-] [REX 7, 4-(Benzo[b]thiophen-4-yl)-1-((((hexyloxy)carbonyl)oxy)methyl)-1-(4-((2-oxo-1,2-dihydroquinolin-7-yl)oxy)butyl)piperazin-1-ium iodide, reference compound] | 240 | 270 | –
CC1(C)OCC(COC(=O)CCCCC(=O)OCOP(=O)([O-])OC[N+]2(CCCCOc3ccc4ccc(=O)[nH]c4c3)CCN(c3cccc4sccc34)CC2)CO1 [EX 75, (4-(benzo[b]thiophen-4-yl)-1-(4-((2-oxo-1,2-dihydroquinolin-7-yl)oxy)butyl)piperazin-1-ium-1-yl)methyl (((6-((2,2-dimethyl-1.3-dioxan-5-yl)methoxy)-6-oxohexanoyl)oxy)methyl) phosphate] | 0 | 70 | –
O=C(OCCCCCCOP(=O)([O-])OC[N+]1(CCCCOc2ccc3ccc(=O)[nH]c3c2)CCN(c2cccc3sccc23)CC1)c1ccc([N+](=O)[O-])cc1 [EX 85, (4-(benzo[b]thiophen-4-yl)-1-(4-((2-oxo-1,2-dihydroquinolin-7-yl)oxy)butyl)piperazin-1-ium-1-yl)methyl (6-((4-nitrobenzoyl)oxy)hexyl) phosphate] | 0 | 40 | –
O=c1ccc2ccc(OCCCC[N+]3(COP(=O)([O-])OC[C@H]4CC[C@H](CO)CC4)CCN(c4cccc5sccc45)CC3)cc2[nH]1 [EX 86, (4-(benzo[b]thiophen-4-yl)-1-(4-((2-oxo-1,2-dihydroquinolin-7-yl)oxy)butyl)piperazin-1-ium-1-yl)methyl (((1r,4r)-4-(hydroxymethyl)cyclohexyl)methyl) phosphate] | 0 | 50 | –
CCC(=O)OC[N+]1(CCCCOc2ccc3ccc(=O)[nH]c3c2)CCN(c2cccc3sccc23)CC1.[I-] [REX 5, 4-(Benzo[b]thiophen-4-yl)-1-(4-((2-oxo-1,2-dihydroquinolin-7-yl)oxy)butyl)-1-((propionyloxy)methyl)piperazin-1-ium iodide, reference compound] | 260 | 200 | –
O=c1ccc2ccc(OCCCC[N+]3(COP(=O)([O-])OCC#CCCl)CCN(c4cccc5sccc45)CC3)cc2[nH]1 [EX 63, (4-(benzo[b]thiophen-4-yl)-1-(4-((2-oxo-1,2-dihydroquinolin-7-yl)oxy)butyl)piperazin-1-ium-1-yl)methyl (4-chlorobut-2-yn-1-yl) phosphate] | 0 | 20 | –
CCCCCCCCOP(=O)([O-])OC[N+]1(CCCCOc2ccc3ccc(=O)[nH]c3c2)CCN(c2cccc3sccc23)CC1 [EX 37, (4-(benzo[b]thiophen-4-yl)-1-(4-((2-oxo-1,2-dihydroquinolin-7-yl)oxy)butyl)piperazin-1-ium-1-yl)methyl octyl phosphate] | 0 | 60 | –
CCCCCC(=O)OC[N+]1(CCCCOc2ccc3ccc(=O)[nH]c3c2)CCN(c2cccc3sccc23)CC1.[I-] [REX 6, 4-(Benzo[b]thiophen-4-yl)-1-((hexanoyloxy)methyl)-1-(4-((2-oxo-1,2-dihydroquinolin-7-yl)oxy)butyl)piperazin-1-ium iodide, reference compound] | 210 | 220 | –
CCCC(=O)OCOP(=O)([O-])OC[N+]1(CCCCOc2ccc3ccc(=O)[nH]c3c2)CCN(c2cccc3sccc23)CC1 [EX 121] | 0 | 90 | –
CCCCOP(=O)([O-])OC[N+]1(CCCCOc2ccc3ccc(=O)[nH]c3c2)CCN(c2cccc3sccc23)CC1 [EX 89, (4-(benzo[b]thiophen-4-yl)-1-(4-((2-oxo-1,2-dihydroquinolin-7-yl)oxy)butyl)piperazin-1-ium-1-yl)methyl butyl phosphate] | 0 | -70 | –
O=c1ccc2ccc(OCCCC[N+]3(COP(=O)([O-])OCC(F)F)CCN(c4cccc5sccc45)CC3)cc2[nH]1 [EX 115, (4-(benzo[b]thiophen-4-yl)-1-(4-(2-oxo-1,2-dihydroquinolin-7-yl)oxy)butyl)piperazin-1-ium-1-yl)methyl (2,2-difluoroethyl) phosphate] | 0 | 50 | –
CCCCCCOC(=O)OC[N+]1(CCCCOc2ccc3ccc(=O)[nH]c3c2)CCN(c2cccc3sccc23)CC1 [Reference Example 7, reference compound] | – | – | clearly degraded to brexpiprazole
CCOC(=O)CCCC(=O)OCOP(=O)([O-])OC[N+]1(CCCCOc2ccc3ccc(=O)[nH]c3c2)CCN(c2cccc3sccc23)CC1 [EX 68, (4-(benzo[b]thiophen-4-yl)-1-(4-((2-oxo-1,2-dihydroquinolin-7-yl)oxy)butylpiperazin-1-ium-1-yl)methyl (((5-ethoxy-5-oxopentanoyl)oxy)methyl) phosphate] | 0 | 90 | –
